The assay addresses cAMP-dependent protein kinase catalytic subunit beta (Homo sapiens) (UniProt P22694). The assay can be described thus: Inhibition of PKAbeta.

By IC50 is commonly meant the midpoint of a concentration-inhibition curve. Low values mean greater potency in that assay, high ones weaker potency in that assay.

A value given as a limit tells only on which side of the number the result lay.

On to `Cc1ccc(C(=O)Nc2ccon2)cc1NC(=O)c1cnn(-c2ccccc2F)c1N` [5-amino-1-(2-fluorophenyl)-N-(5-(isoxazol-3-ylcarbamoyl)-2-methylphenyl)-1H-pyrazole-4-carboxamide], for which the IC50 is over 40 µM.

Source of the values: BindingDB's records for doi:10.1016/j.bmcl.2010.10.034 (Bristol-Myers Squibb Research and Development, 2010).
